Laboratory results from article PMC10499581 (Journal of Ginseng Research, 2023).

T1: PURA (Rattus norvegicus, UniProt A0A8I5YBE8)
T1 sequence (A0A8I5YBE8 1-321): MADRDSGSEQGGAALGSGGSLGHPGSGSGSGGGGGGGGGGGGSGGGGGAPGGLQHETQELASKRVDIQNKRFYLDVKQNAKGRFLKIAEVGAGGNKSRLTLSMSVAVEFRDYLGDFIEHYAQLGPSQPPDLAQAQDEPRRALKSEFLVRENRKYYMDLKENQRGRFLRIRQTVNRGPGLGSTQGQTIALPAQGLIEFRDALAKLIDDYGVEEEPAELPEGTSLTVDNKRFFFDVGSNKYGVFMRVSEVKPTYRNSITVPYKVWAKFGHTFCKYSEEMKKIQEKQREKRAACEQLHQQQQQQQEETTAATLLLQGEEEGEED

T2: Pur-alpha (PURA), wild type, recombinant His-tagged (rat, UniProt A0A8I5YBE8 1-321)
T2 sequence (looked up): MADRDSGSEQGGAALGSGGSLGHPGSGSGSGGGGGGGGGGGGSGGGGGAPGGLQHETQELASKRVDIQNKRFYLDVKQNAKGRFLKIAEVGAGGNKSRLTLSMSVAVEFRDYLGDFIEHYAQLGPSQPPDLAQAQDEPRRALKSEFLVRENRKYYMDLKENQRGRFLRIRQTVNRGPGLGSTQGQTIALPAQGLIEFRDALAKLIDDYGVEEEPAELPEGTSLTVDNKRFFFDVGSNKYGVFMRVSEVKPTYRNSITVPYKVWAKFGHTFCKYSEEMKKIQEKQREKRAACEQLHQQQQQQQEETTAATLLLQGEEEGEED


How the values were obtained:
PURA = target: T1, PURA; assay: biolayer interferometry, single concentration; assay type: binding; conditions: 30 °C, His-tagged PURA immobilized
[1] = target: T2, Pur-alpha (PURA), wild type, …; assay: BLI

Molecule	wavelength shift at 300 μM (PURA)	Kd [1]
CC(C)=CCC[C@](C)(O[C@@H]1O[C@H](CO)[C@@H](O)[C@H](O)[C@H]1O)[C@H]1CC[C@]2(C)[C@@H]1[C@H](O)C[C@@H]1[C@@]3(C)CC[C@H](O)C(C)(C)[C@@H]3CC[C@]12C [CK]	The direct binding strength of PURA to Rb1,Re, Rh1, Rg1, F1, Rd, Rh2,CK, PPD	
CC(C)=CCC[C@](C)(O[C@@H]1O[C@H](CO)[C@@H](O)[C@H](O)[C@H]1O)[C@H]1CC[C@]2(C)[C@@H]1[C@H](O)C[C@@H]1[C@@]3(C)CC[C@H](O)C(C)(C)[C@@H]3[C@@H](O)C[C@]12C [F1]	The direct binding strength of PURA to Rb1,Re, Rh1, Rg1, F1, Rd, Rh2,CK, PPD	
CC(C)=CCC[C@](C)(O)[C@H]1CC[C@]2(C)[C@@H]1[C@H](O)C[C@@H]1[C@@]3(C)CC[C@H](O)C(C)(C)[C@@H]3[C@@H](O[C@@H]3O[C@H](CO)[C@@H](O)[C@H](O)[C@H]3O)C[C@]12C [Rh1]	The direct binding strength of PURA to Rb1,Re, Rh1, Rg1, F1, Rd, Rh2,CK, PPD	
CC(C)=CCC[C@](C)(O)[C@H]1CC[C@]2(C)[C@@H]1[C@H](O)C[C@@H]1[C@@]3(C)CC[C@H](O[C@@H]4O[C@H](CO)[C@@H](O)[C@H](O)[C@H]4O)C(C)(C)[C@@H]3CC[C@]12C [Rh2]	The direct binding strength of PURA to Rb1,Re, Rh1, Rg1, F1, Rd, Rh2,CK, PPD	
Pur-beta (PURB) (natural protein, UniProt Q68A21 1-315, looked up) MADGDSGSERGGGGPGSFQPAPRGGGGPGGEQETQELASKRLDIQNKRFYLDVKQNAKGRFLKIAEVGAGGSKSRLTLSMAVAAEFRDSLGDFIEHYAQLGPSSPEQLAAGAEEGGGPRRALKSEFLVRENRKYYLDLKENQRGRFLRIRQTVNRGGGGFGGGPGPGGLQSGQTIALPAQGLIEFRDALAKLIDDYGGEDDELAGGPGGGAGGPGGGLYGELPEGTSITVDSKRFFFDVGCNKYGVFLRVSEVKPSYRNAITVPFKAWGKFGGAFCRYADEMKEIQERQRDKLYERRGGGSGGGDESEGEEVDED		1930 nM
